From PMC8948214, “Transport efficiency of AtGTR1 dependents on the hydrophobicity of transported glucosinolates” (Scientific Reports, 2022)
One block for each molecule: values may come before it.

Legend:
AtGTR1 = molecular target: T1, AtGTR1 (Arabidopsis thaliana, UniProt Q944G5); test: inhibition of glucotropaeolin uptake in yeast, RP-HPLC; format: cell-based
T1 construct: gene NPF2.10; full-length synthesized cDNA with C-terminal 8-His-tag in pESC-URA; expressed in S. cerevisiae FGY217; theoretical 68 kDa; homodimer after purification
T1 sequence (Q944G5 31-636): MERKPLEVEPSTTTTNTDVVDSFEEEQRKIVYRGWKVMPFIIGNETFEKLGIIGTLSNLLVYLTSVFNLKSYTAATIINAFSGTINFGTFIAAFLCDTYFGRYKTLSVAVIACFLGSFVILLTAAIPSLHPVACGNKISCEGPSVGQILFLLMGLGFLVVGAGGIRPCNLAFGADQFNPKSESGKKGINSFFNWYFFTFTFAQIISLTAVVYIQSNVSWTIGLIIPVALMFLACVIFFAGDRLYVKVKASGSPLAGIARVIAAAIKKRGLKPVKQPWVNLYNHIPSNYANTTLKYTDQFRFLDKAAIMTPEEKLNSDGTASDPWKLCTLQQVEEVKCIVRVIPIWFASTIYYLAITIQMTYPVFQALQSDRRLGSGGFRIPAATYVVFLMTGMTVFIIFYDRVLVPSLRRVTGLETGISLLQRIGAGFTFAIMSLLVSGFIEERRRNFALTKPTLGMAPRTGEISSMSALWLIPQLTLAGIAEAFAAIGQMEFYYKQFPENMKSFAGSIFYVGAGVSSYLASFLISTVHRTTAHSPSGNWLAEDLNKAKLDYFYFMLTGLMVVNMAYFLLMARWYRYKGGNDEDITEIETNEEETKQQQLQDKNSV

[1] = substrate: O=S(=O)(O)O/N=C(/Cc1c[nH]c2ccccc12)S[C@@H]1O[C@H](CO)[C@@H](O)[C@H](O)[C@H]1O; test: yeast uptake assay, RP-HPLC of desulfo-glucosinolate; format: cell-based, Arabidopsis thaliana; details: 15 min uptake, 2.5-320 μM substrate, pH 5.5, 30 °C, proton-coupled, apparent
[2] = substrate: O=S(=O)(O)O/N=C(\Cc1ccccc1)S[C@@H]1O[C@H](CO)[C@@H](O)[C@H](O)[C@H]1O; test: as above; format: cell-based, Arabidopsis thaliana; details: 15 min uptake, 2.5-320 μM substrate, pH 5.5, 30 °C, proton-coupled, apparent

IC50 (AtGTR1): 762 ± 48.1 µM
Molecule: O=C(O)Cc1c[nH]c2ccccc12 [IAA, 3-indoleacetic acid]

IC50 (AtGTR1): 938 ± 114 µM
Molecule: CC/C=C\C[C@H]1C(=O)CC[C@@H]1CC(=O)O [JA, jasmonic acid]

IC50 (AtGTR1): 630 ± 47.5 µM
Molecule: O=C(O)c1ccccc1O [SA, salicylic acid]

B1: AtGTR1 (Arabidopsis thaliana) (protein)
chain: T1 sequence (Q944G5 31-636)
notes: full-length synthesized cDNA with C-terminal 8-His-tag in pESC-URA; expressed in S. cerevisiae FGY217; theoretical 68 kDa; homodimer after purification
Km [1]: 8.2 ± 0.60 µM
Km [2]: 13.6 ± 1.55 µM
